Tests used:
Fathead Minnow = test: Toxicity, LC50 Fathead Minnow; settings: in vivo
Method: Product A was evaluated for toxicity using various tests.

Coreflood = settings: flow back versus pre-treatment permeability
Method: Two corefloods were carried out simultaneously on two Bandera outcrop cores (1.5″ diameter by 3″ length), using a Scaled Solutions dual coreflood apparatus. The composition of these cores is set out in the table below:
Both cores were wrapped with PTFE tape and cased in heat shrink tubing prior to insertion into a Viton sleeve and mounted in a Hassler type core holder with a confining pressure of 1200 psi. Both cores were then flushed with synthetic brine at 1 mL/min for at least 2 hours and until the differential pressure was stable. Brine was flushed at 0.5 mL/min overnight.
Both cores were saturated with synthetic brine under ambient conditions in the forward direction at 1 mL/min for 10 minutes, 2 mL/min for 10 minutes, 3 mL/min for 10 minutes, and 4 mL/min for 2 hours and until the differential pressure was stable. After a stable differential pressure was achieved, the permeability to brine was measured in the forward flow by flooding at 4, 3, 2, 1 mL/min at room temperature.
Brine was then injected into both cores in the forward direction at 1 mL/min until the oven reached a temperature of 80° C. […] Following plug saturation, the permeability of each core to synthetic brine was measured in the forward flow by flooding at 4, 3, 2, and 1 mL/min at 80° C. […]
Both cores were injected with synthetic brine at 2 mL/min with effluent samples being collected. The samples were analyzed by ICP. […]

[1] = Compatibility test of scale inhibitors with Product A in synthetic brine; format: physicochemical; design: key: C—Clear; P—Precipitate; settings: 10% scale inhibitor solution mixed with 10% Product A solution in synthetic brine
Description: Individual solutions (Solutions 1B through 1G) of 10% Product B, C, D, E, F and G, respectively, in a synthetic brine (see the table below showing the synthetic brine composition) were mixed with a 10% solution (Solution 2) of Product A in the synthetic brine. The two sets of solutions were mixed with Solution 2 (i. e., each of Solutions 1B through 1G were mixed with Solution 2) at ratios of 10:90, 30:70, 50:50, 70:30 and 90:10 to indicate that no precipitate would form at any concentration in the mixing concentration range from 10:90 to 90:10. These compatibility screening tests indicate that it is unlikely for any incompatibility to be experienced during deployment and flow back of a squeeze treatment. Any incompatibilities under ambient conditions were observed visually from solution clarity and/or precipitate. The samples were then heated to the test temperature (80° C.) and any further incompatibilities after 2 and 24 hours recorded.

[2] = ratio printed 10:90 (fifth column)
[3] = ratio printed 30:70 (fourth column)

Permeability Recovery (Coreflood) [%] | Permeability Recovery (Coreflood; listed as Brine/10% Product B) [%] | Molecule | LC50 Fathead Minnow (Fathead Minnow) | Clarity of Mixed Solutions ([1]; ratio 10:90 (first column)) | Clarity of Mixed Solutions ([1]; ratio 30:70 (second column)) | Clarity of Mixed Solutions ([1]; ratio 50:50) | Clarity of Mixed Solutions [1, 2] | Clarity of Mixed Solutions [1, 3]
– | – | C[N+](C)(C)CC(O)C[N+](C)(C)C.[Cl-].[Cl-] [Product A, 1,3-propandiaminium, 2-hydroxy-N,N,N,N′,N′,N′-hexamethyl-, dichloride] | >1,000 mg/L | – | – | – | – | –
75 | 75 | O=P(O)(O)CN(CCCCCCN(CP(=O)(O)O)CP(=O)(O)O)CCCCCCN(CP(=O)(O)O)CP(=O)(O)O [Product B, BHMT phosphonate] | – | C | C | C | C | C
– | – | DETA phosphonate [Product C] | – | C | C | C | C | C

Source: US9803450B2, “Use of oligo-quaternary compositions to increase scale inhibitor lifetime in a subterranean formation” (Ecolab USA Inc., priority 2012, dated 2017)
